Data as given in article PMC8724172, “The effect of potent CYP2D6 inhibition on the pharmacokinetics and safety of deutetrabenazine in healthy volunteers” (European Journal of Clinical Pharmacology, 2021).

Assay: Open-label sequential drug-drug interaction study: plasma pharmacokinetics of deutetrabenazine and its metabolites without and with steady-state paroxetine
Set-up: AUC0−t lower by a factor in presence of paroxetine / Cmax lower by a factor in presence of paroxetine: unit not given beside the values
Settings: in vivo
Excerpt: This was an open-label sequential drug-drug interaction study in 24 healthy adult subjects who were CYP2D6 extensive metabolizers (EM) or CYP2D6 intermediate metabolizers (IM); Supplemental Table S1 provides the genotypes and phenotypes of the subjects.
Subjects checked into the clinic on day 1 and were confined through day 14. […] Those who met inclusion/exclusion criteria received a single dose of deutetrabenazine on day 1 followed by a 72-h washout. Subjects then received paroxetine on days 4 to 12 to achieve steady-state plasma concentrations of paroxetine by day 11. On day 11, another single dose of deutetrabenazine was administered. Triplicate 12-lead digital electrocardiograms (ECGs) were collected predose and for 10 h following deutetrabenazine dosing on day 1, and for 10 h on day 11, following paroxetine administration on day 10. Blood samples for measurement of plasma concentrations of deutetrabenazine and its metabolites were obtained on days 1 and 11 (predose, 1, 2, 2.5, 3, 3.5, 4, 4.5, 5, 6, 7, 8, 10, 12, and 16 h), days 2 and 12, at 24 and 36 h, days 3 and 13, at 48 and 60 h and days 4 and 14, at 72 h. Paroxetine trough levels were obtained pre-dose on days 9, 10, 11, and 12, and on day 13 at 24 h post the final paroxetine dose on day 12. Blood and urine samples were collected for clinical laboratory testing (hematology, serum chemistries, and urinalysis) at admission and after at least 10 h fasting and at study completion on day 14 or upon early withdrawal.
All participants received the following treatments, deutetrabenazine 22.5-mg oral dose as one 15-mg tablet + one 7.5-mg tablet on days 1 and 11 and one paroxetine 20 mg (Cadila Healthcare Ltd.) oral tablet on days 4 through 12. The deutetrabenazine 22.5-mg dose was administered with 237 mL of water in the morning approximately 30 min after a standardized breakfast meal with moderate fat content (35%). No food was allowed for at least 4 h postdose, and subjects were asked to remain upright for at least 4 h postdose, unless medically necessary.
Paroxetine 20 mg was administered in the morning with 237 mL water for 9 days (days 4 to 12) to ensure steady-state levels. On days 4 to 10 and 12, the paroxetine dose was administered in a fed state 30 min after breakfast. On day 11, as paroxetine can be administered without regard to food, subjects took the paroxetine dose under fasting conditions (at least 1 h prior to breakfast and 1.5 h prior to deutetrabenazine administration) following an overnight fast of at least 10 h. Subjects were asked to remain upright for at least 1 h after the paroxetine dose, unless medically necessary.
Validated liquid chromatography/tandem mass spectrometry methods were applied to assess plasma concentrations of paroxetine, deutetrabenazine, α- and β-HTBZ metabolites, and the O-desmethyl metabolites of α- and β-HTBZ. This was performed on a Sciex API 4000 instrument, equipped with a Turbo Ion Spray ion source operated in the positive ion mode and interfaced to a Shimadzu HPLC system fitted with a Waters XBridge C18 reverse phase column (3.5 µm; 50 × 2.1 mm) for paroxetine, deutetrabenazine, α-HTBZ and β-HTBZ or a Phenomenex Kinetex column (2.6 µm; 100 × 2.1 mm) for the O-desmethyl metabolites. The validated assay ranges were as follows: paroxetine 0.500 to 50.0 ng/mL, deutetrabenazine 0.100 to 10.0 ng/mL, deuterated α- and β-HTBZ 0.500 to 100 ng/mL, and 9-O- and 10-O-desmethyl metabolites of α-HTBZ and β-HTBZ 0.5 to 50.0 ng/mL. The methods were developed and validated by CPR Pharma Services, Pty, Ltd Australia, as described earlier.
Plasma concentrations, below the limit of quantitation (BLQ) of the assay, were designated a value of zero for initial and time points occurring at the end of the profile. For sampling time points between two quantifiable concentrations, plasma concentrations BLQ followed by a measurable concentration were set to the limit of quantitation of the assay.

Row | Cmax (human) | AUC0-t (human, im) | Cmax (human, im) | Tmax (human, im) | Cmax (human, po, 22.5 mg) | AUC0−t lower by a factor in presence of paroxetine | Cmax lower by a factor in presence of paroxetine | t1/2 (human, im) | Quantifiability of plasma concentrations | Compound
1 | 1.4 (18) ng/mL | 13.8 (65) ng × h/mL | 1.2 (45) ng/mL | 5.5 (3.5–12.0) h | 1.3 (28) ng/mL | 0.3 | 0.4 | – | – | COc1cc2c(cc1O)CCN1C[C@@H](CC(C)C)[C@H](O)C[C@H]21 [9-O-desmethyl α-HTBZ]
2 | 4.5 (20) ng/mL | 105 (33) ng × h/mL | 4.2 (45) ng/mL | 7.0 (4.0–24.0) h | 4.4 (29) ng/mL | 0.7 | 0.4 | 16.8 (13) (n = 7) h | – | COc1cc2c(cc1O)CCN1C[C@@H](CC(C)C)[C@@H](O)C[C@H]21 [9-O-desmethyl β-HTBZ]
3 | – | – | – | – | – | – | – | – | appeared transiently in some subjects | COc1cc2c(cc1O)[C@H]1C[C@H](O)[C@H](CC(C)C)CN1CC2 [10-O-desmethyl β-HTBZ]
